Test results reported in patent US12590062B2, “PD-1/PD-L1 inhibitors” (Gilead Sciences, Inc., priority 2017, dated 2026).

Experiments:
PD-L1 = target: T1, PD-L1 (Homo sapiens, UniProt Q9NZQ7); assay: PD-L1/PD-L1 dimerization biochemical protein-protein interaction assay (ALPHA); assay type: binding; conditions: compound-induced PD-L1 dimerization, head prints '1 nM' (0.5 nM His-tagged PD-L1 and 0.5 nM FLAG-tagged PD-L1), read-out: AC50 PDL1 Dimer Alpha 1 nM
T1 construct: determine if they can specifically dimerize the extracellular domains of PD-L1
Summary of the method: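 After 2 h at 25 °C with compound, His- and FLAG-tagged PD-L1 ECDs (each 0.5 nM final; 25 mM Hepes pH 7.4, 150 mM NaCl) were detected by sequential anti-His acceptor and anti-FLAG donor bead incubations. Dose-response curves fitted to four-parameter equation for AC50.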

PD-1/PD-L1 interaction = target: T2, PD-1/PD-L1 interaction (Homo sapiens, UniProt Q9NZQ7); assay: PD-1/PD-L1 NFAT reporter co-culture assay; assay type: cell-based; conditions: Jurkat PD-1 NFAT-luciferase cells co-cultured with aAPC-PD-L1 CHO cells, 6 hrs at 37° C.; read-out: EC50 NFAT Luciferase
T2 construct: expressed in transfected cells; host or cells: CHO cells (aAPC-PD-L1) co-cultured with Jurkat cells overexpressing PD-1 and an NFAT-luciferase reporter
Summary of the method: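 Luminescence (ONE-Glo) after 6 h, 37 °C co-culture reports NFAT-luciferase in PD-1 Jurkat cells, which PD-1/PD-L1 engagement suppresses. Partner cells: CHO expressing anti-CD3 and PD-L1. EC50 from four-parameter dose-response fit.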

PD-1/PD-L1 = PD-1/PD-L1 (Homo sapiens, UniProt Q9NZQ7); assay: PD-1/PD-L1 biochemical protein-protein interaction assay (ALPHA); assay type: binding; conditions: 0.3 nM His tagged PD-L1, 2.5 nM biotinylated Fc-PD-1, 60 minutes at 25° C., read-out: IC50 PD-L1-PD-1 Alpha IC50-mono PD-L1-fcP-D1
Summary of the method: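 Compound blockade of the PD-1/PD-L1 extracellular-domain interaction measured as reduced ALPHA signal after 60 min at 25 °C, pH 7.4 Hepes buffer with EDTA, Tween 20 and BSA. Final proteins: His-tagged PD-L1 0.3 nM, biotinylated Fc-PD-1 2.5 nM; four-parameter curve fit gives IC50.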

[1] = target: T3, interaction between the recombinant extracellular domain (ECD) of PD-1 and native cell-bound PD-L1 (Homo sapiens, UniProt Q9NZQ7); assay: CHO/PD-L1 cell capture assay; assay type: cell-based; conditions: CHO cells overexpressing PD-L1, pre-incubated 1 hr with compound, captured on biotinylated Fc-PD-1 coated plates, 75 min at room temperature
T3 construct: expressed in transfected cells
Summary of the method: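 EC50 values came from four-parameter fits of counts of Draq5-stained CHO-PD-L1 cells retained on plate-bound biotinylated Fc-PD-1 ECD, enumerated by high-content imaging. Cells in PBS pH 7.4 with EDTA and 2% BSA had 1 hr compound pre-incubation, then 75 min capture at room temperature.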

T1 sequence (Q9NZQ7 19-238 limits assumed): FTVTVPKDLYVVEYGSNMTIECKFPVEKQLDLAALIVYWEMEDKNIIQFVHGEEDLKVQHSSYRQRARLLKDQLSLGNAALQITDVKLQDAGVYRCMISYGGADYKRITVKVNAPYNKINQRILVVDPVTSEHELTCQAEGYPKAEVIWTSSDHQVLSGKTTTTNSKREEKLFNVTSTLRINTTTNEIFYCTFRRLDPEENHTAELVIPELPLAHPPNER
T1 sequence (Q9NZQ7 19-238 limits assumed): as above
PD-1/PD-L1, sequence (Q9NZQ7 19-238 limits assumed): as above
T2 sequence (Q9NZQ7 19-290): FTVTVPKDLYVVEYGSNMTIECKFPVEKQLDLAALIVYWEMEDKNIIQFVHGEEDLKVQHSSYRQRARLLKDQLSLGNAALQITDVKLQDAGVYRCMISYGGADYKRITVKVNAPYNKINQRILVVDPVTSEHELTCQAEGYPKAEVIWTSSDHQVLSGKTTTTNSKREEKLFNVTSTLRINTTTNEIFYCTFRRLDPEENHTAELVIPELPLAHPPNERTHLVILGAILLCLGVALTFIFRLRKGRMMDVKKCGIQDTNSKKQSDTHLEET
T3 sequence (Q9NZQ7 19-290): as above

Compound | AC50 (PD-L1) [nM] | EC50 (PD-1/PD-L1 interaction) [nM] | IC50 (PD-1/PD-L1) [nM] | EC50 [1] [nM]
Cc1c(COc2nc(OCCc3cncnc3)c(CNC[C@@H](O)CC(=O)O)cc2Br)cccc1-c1cccc(COc2nc(OCCc3cncnc3)c(CNC[C@@H](O)CC(=O)O)cc2Br)c1C [Example 127, (3S,3′S)-4,4′-((((((2,2′-dimethyl-[1,1′-biphenyl]-3,3′-diyl)bis(methylene))bis(oxy))bis(5-bromo-2-(2-(pyrimidin-5-yl)ethoxy)pyridine-6,3-diyl))bis(methylene))bis(azanediyl))bis(3-hydroxybutanoic acid)] | 166 | 193 | 0.2 | 68.6
Cc1c(COc2nc(OCC3COC3)c(CNC[C@@H](O)CC(=O)O)cc2Br)cccc1-c1cccc(COc2nc(OCC3COC3)c(CNC[C@@H](O)CC(=O)O)cc2Br)c1C [Example 132, (3S,3′S)-4,4′-((((((2,2′-dimethyl-[1,1′-biphenyl]-3,3′-diyl)bis(methylene))bis(oxy))bis(5-bromo-2-(oxetan-3-ylmethoxy)pyridine-6,3-diyl))bis(methylene))bis(azanediyl))bis(3-hydroxybutanoic acid)] | 279 | 391 | 0.3 | 194
Cc1c(COc2cc(OCc3cncc(C#N)c3)c(CNC[C@H](O)C(=O)O)cc2Cl)cccc1-c1cccc(COc2cc(OCc3cncc(C#N)c3)c(CNC[C@H](O)C(=O)O)cc2Cl)c1C [Example 213, (2S,2′S)-3,3′-((((((2,2′-dimethyl-[1,1′-biphenyl]-3,3′-diyl)bis(methylene))bis(oxy))bis(5-chloro-2-((5-cyanopyridin-3-yl)methoxy)-4,1-phenylene))bis(methylene))bis(azanediyl))bis(2-hydroxypropanoic acid)] | 255 | 182 | 1.6 | 165
COc1cc(OCc2cccc(-c3cccc(COc4cc(OC)c(CNC[C@@H](O)CC(=O)O)cc4Cl)c3C)c2C)c(Cl)cc1CNC[C@@H](O)CC(=O)O [Example 214, (3S,3′S)-4,4′-((((((2,2′-dimethyl-[1,1′-biphenyl]-3,3′-diyl)bis(methylene))bis(oxy))bis(5-chloro-2-methoxy-4,1-phenylene))bis(methylene))bis(azanediyl))bis(3-hydroxybutanoic acid)] | 188 | 172 | 0.2 | 22.3
Cc1c(COc2cc(OCc3cncc(C#N)c3)c(CNC(CO)(CO)CO)cc2Cl)cccc1-c1cccc(COc2cc(OCc3cncc(C#N)c3)c(CNC(CO)(CO)CO)cc2Cl)c1C [Example 282, 5,5′-((((((2,2′-dimethyl-[1,1′-biphenyl]-3,3′-diyl)bis(methylene))bis(oxy))bis(4-chloro-6-(((1,3-dihydroxy-2-(hydroxymethyl)propan-2-yl)amino)methyl)-3,1-phenylene))bis(oxy))bis(methylene))dinicotinonitrile] | 327 | 463 |  | 254

Now those with a lower EC50 (PD-1/PD-L1 interaction), led by results:

AC50 (PD-L1) [nM] | EC50 (PD-1/PD-L1 interaction) [nM] | IC50 (PD-1/PD-L1) [nM] | EC50 [1] [nM] | Compound
67.2 | 17 | 0.1 | 15.6 | N#Cc1cncc(COc2nc(O[C@H]3CCc4c(-c5cccc6c5CC[C@@H]6Oc5nc(OCc6cncc(C#N)c6)c(CNC[C@@H](O)CC(=O)O)cc5Br)cccc43)c(Br)cc2CNC[C@@H](O)CC(=O)O)c1 [Example 4, (3S,3′S)-4,4′-((((((1S,1′S)-2,2′,3,3′-tetrahydro-1H,1′H-[4,4′-biindene]-1,1′-diyl)bis(oxy))bis(5-bromo-2-((5-cyanopyridin-3-yl)methoxy)pyridine-6,3-diyl))bis(methylene))bis(azanediyl))bis(3-hydroxybutanoic acid)]
90.9 | 148 | 0.1 | 63.8 | COc1nc(O[C@H]2CCc3c(-c4cccc5c4CC[C@@H]5Oc4nc(OC)c(CNC[C@@H](O)CC(=O)O)cc4Cl)cccc32)c(Cl)cc1CNC[C@@H](O)CC(=O)O [Example 6, (3S,3′S)-4,4′-((((((1S,1′S)-2,2′,3,3′-tetrahydro-1H,1′H-[4,4′-biindene]-1,1′-diyl)bis(oxy))bis(5-chloro-2-methoxypyridine-6,3-diyl))bis(methylene))bis(azanediyl))bis(3-hydroxybutanoic acid)]
140 | 89 | 0.1 | 56 | COc1nc(O[C@H]2CCc3c(-c4cccc5c4CC[C@@H]5Oc4nc(OC)c(CNC[C@@H](O)CC(=O)O)cc4Br)cccc32)c(Br)cc1CNC[C@@H](O)CC(=O)O [Example 7, (3S,3′S)-4,4′-((((((1S,1′S)-2,2′,3,3′-tetrahydro-1H,1′H-[4,4′-biindene]-1,1′-diyl)bis(oxy))bis(5-bromo-2-methoxypyridine-6,3-diyl))bis(methylene))bis(azanediyl))bis(3-hydroxybutanoic acid)]
100 | 88 | 0.1 | 6 | Cc1c(COc2cc(OCc3cncc(C#N)c3)c(CNC[C@@H](O)CC(=O)O)cc2Cl)cccc1-c1cccc(-c2ccc(OCCNC[C@@H](O)CC(=O)O)cc2)c1C [Example 16, (S)-4-((4-((4″-(2-(((S)-3-carboxy-2-hydroxypropyl)amino)ethoxy)-2,2′-dimethyl-[1,1′:3′,1″-terphenyl]-3-yl)methoxy)-5-chloro-2-((5-cyanopyridin-3-yl)methoxy)benzyl)amino)-3-hydroxybutanoic acid]
236 | 160 | 0.2 | 263 | Cc1c(COc2cc(OCc3cncc(C#N)c3)c(CNC[C@H](O)CC(=O)O)cc2Cl)cccc1-c1cccc(COc2cc(OCc3cncc(C#N)c3)c(CNC[C@H](O)CC(=O)O)cc2Cl)c1C [Example 162, (3R,3′R)-4,4′-((((((2,2′-dimethyl-[1,1′-biphenyl]-3,3′-diyl)bis(methylene))bis(oxy))bis(5-chloro-2-((5-cyanopyridin-3-yl)methoxy)-4,1-phenylene))bis(methylene))bis(azanediyl))bis(3-hydroxybutanoic acid)]
≥ 10000 | 109 | 2.2 | 62.3 | COc1nc(OCc2cccc(-c3cccc(COc4nc(OC)c(CNC[C@@H](O)C(=O)O)cc4Cl)c3C)c2C)c(Cl)cc1CNC[C@@H](O)C(=O)O [Example 167, (2R,2′R)-3,3′-((((((2,2′-dimethyl-[1,1′-biphenyl]-3,3′-diyl)bis(methylene))bis(oxy))bis(5-chloro-2-methoxypyridine-6,3-diyl))bis(methylene))bis(azanediyl))bis(2-hydroxypropanoic acid)]
≥ 10000 | 115 | 0.2 | 71.6 | COc1nc(OCc2cccc(-c3cccc(COc4nc(OC)c(CNCC(=O)O)cc4Cl)c3C)c2C)c(Cl)cc1CNCC(=O)O [Example 178, 2,2′-((((((2,2′-dimethyl-[1,1′-biphenyl]-3,3′-diyl)bis(methylene))bis(oxy))bis(5-chloro-2-methoxypyridine-6,3-diyl))bis(methylene))bis(azanediyl))diacetic acid]
367 | 108 | 0.4 | 217 | Cc1c(COc2nc(OCc3cncc(C#N)c3)c(CNC[C@@H](O)CC(=O)O)cc2Br)cccc1-c1cccc(COc2nc(OCc3cncc(C#N)c3)c(CNC[C@@H](O)CC(=O)O)cc2Br)c1C [Example 240, (3S,3′S)-4,4′-((((((2,2′-dimethyl-[1,1′-biphenyl]-3,3′-diyl)bis(methylene))bis(oxy))bis(5-bromo-2-((5-cyanopyridin-3-yl)methoxy)pyridine-6,3-diyl))bis(methylene))bis(azanediyl))bis(3-hydroxybutanoic acid)]
